# From patent US6593357B1, “Pyrazole compositions useful as inhibitors of ERK” (Vertex Pharmaceuticals Incorporated, priority 2000, dated 2003)
# Molecular target: T1, Aurora2 (Homo sapiens, UniProt O14965)
# T1 sequence (O14965 1-403): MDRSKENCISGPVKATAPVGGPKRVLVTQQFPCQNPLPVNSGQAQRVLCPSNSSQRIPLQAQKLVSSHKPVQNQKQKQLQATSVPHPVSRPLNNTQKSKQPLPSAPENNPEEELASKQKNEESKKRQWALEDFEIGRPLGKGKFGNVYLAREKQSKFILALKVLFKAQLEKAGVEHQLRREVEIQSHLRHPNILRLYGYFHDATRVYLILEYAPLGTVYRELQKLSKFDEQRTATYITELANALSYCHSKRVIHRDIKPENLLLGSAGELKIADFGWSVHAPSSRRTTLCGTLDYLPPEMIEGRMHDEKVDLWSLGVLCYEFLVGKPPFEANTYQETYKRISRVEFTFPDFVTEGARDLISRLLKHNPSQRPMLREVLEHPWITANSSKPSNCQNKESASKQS
# Assay: Aurora inhibition, standard coupled enzyme assay
# Format: biochemical
# Settings: 40 μM ATP, 30° C.; read-out: Aurora2 Inhibitory Activity (IC50 class)
# Protocol: Compounds were screened in the following manner for their ability to inhibit Aurora using a standard coupled enzyme assay. To an assay stock buffer solution containing 0.1M HEPES 7.5, 10 mM MgCl2, 25 mM NaCl, 2.5 mM phosphoenolpyruvate, 300 μM NADH, 30 μg/mL pyruvate kinase, 10 μg/mL lactate dehydrogenase, 40 μM ATP, and 800 μM peptide (LRRASLG, American Peptide, Sunnyvale, Calif.) was added a 30 μM solution of the compound in DMSO and the resulting mixture incubated at 30° C. for 10 min. The reaction was initiated by the addition of 10 μL of 70 nM Aurora and 1 mM DTT. The rates of reaction were obtained by monitoring absorbance at 340 nm over a 5 minute read time at 30° C. using a BioRad Ultramark plate reader (Hercules, Calif.). The IC50 was determined from the rate data as a function of inhibitor concentration.
# The compound numbers correspond to the compound numbers in Table 1.
row,IC50 [µM],Structure (SMILES)
1,5 to 10,O=C(NCCc1cnc[nH]1)c1cc(-c2[nH]ncc2-c2cc(Cl)cc(Cl)c2)c[nH]1 [II-266]
2,> 10,COc1ccc(-c2cn[nH]c2-c2c[nH]c(C(=O)NOCc3ccccc3)c2)cc1OC [II-260]
3,5 to 10,O=C(NCc1cccnc1)c1cc(-c2[nH]ncc2-c2ccc3c(c2)OCO3)c[nH]1 [II-216]
4,5 to 10,COc1ccc(-c2cn[nH]c2-c2c[nH]c(C(=O)NCC3CCCO3)c2)cc1OC (stereo not shown) [II-218]
5,5 to 10,O=C(NCCc1cnc[nH]1)c1cc(-c2[nH]ncc2-c2cccc(Cl)c2F)c[nH]1 [II-255]
6,5 to 10,O=C(NCc1ccncc1)c1cc(-c2[nH]ncc2-c2ccc(Cl)cc2)c[nH]1 [II-211]
7,< 5,COc1ccc(-c2cn[nH]c2-c2c[nH]c(C(=O)N3CCOCC3)c2)cc1OC [II-228]
8,5 to 10,O=C(NCc1cccnc1)c1cc(-c2[nH]ncc2-c2ccc(Cl)cc2)c[nH]1 [II-214]
9,< 5,O=C(NCCc1cnc[nH]1)c1cc(-c2[nH]ncc2-c2ccc(Cl)c(Cl)c2)c[nH]1 [II-254]
10,> 10,O=C(NCC1CCCO1)c1cc(-c2[nH]ncc2-c2cc(F)ccc2F)c[nH]1 (stereo not shown) [II-188]
11,< 5,CCN(C)C(=O)c1cc(-c2n[nH]cc2-c2cccc(Cl)c2)c[nH]1 [II-93]
12,< 5,O=C(NCc1ccncc1)c1cc(-c2[nH]ncc2-c2cccc(F)c2F)c[nH]1 [II-141]

# Continued, compound first:
row,Structure (SMILES),IC50 [µM]
1,O=C(NCc1ccncc1)c1cc(-c2[nH]ncc2-c2cc(F)ccc2F)c[nH]1 [II-98],5 to 10
2,CCN(C)C(=O)c1cc(-c2[nH]ncc2-c2cccc(Cl)c2F)c[nH]1 [II-81],< 5
3,O=C(NC(CO)c1ccccc1)c1cc(-c2[nH]ncc2-c2cccc(Br)c2)c[nH]1 (stereo not shown) [II-72],5 to 10
4,O=C(NCc1ccncc1)c1cc(-c2n[nH]cc2-c2cc(Cl)cc(Cl)c2)c[nH]1 [II-48],< 5
5,O=C(NCc1cccnc1)c1cc(-c2[nH]ncc2-c2ccc(F)c(Cl)c2)c[nH]1 [II-101],< 5
6,O=C(NCc1cccnc1)c1cc(-c2[nH]ncc2-c2cccc(Cl)c2F)c[nH]1 [II-114],< 5
7,CCN(C)C(=O)c1cc(-c2[nH]ncc2-c2ccc(Cl)c(Cl)c2)c[nH]1 [II-64],< 5
8,CCN(C)C(=O)c1cc(-c2[nH]ncc2-c2cc(Cl)cc(Cl)c2)c[nH]1 [II-66],5 to 10
9,O=C(NOCc1ccccc1)c1cc(-c2[nH]ncc2-c2cc(Cl)cc(Cl)c2)c[nH]1 [II-51],5 to 10
10,O=C(NOCc1ccccc1)c1cc(-c2[nH]ncc2-c2ccc(Cl)cc2)c[nH]1 [II-99],< 5

# Molecular target: ERK2 (Homo sapiens, UniProt P28482)
# Sequence (P28482 whole entry): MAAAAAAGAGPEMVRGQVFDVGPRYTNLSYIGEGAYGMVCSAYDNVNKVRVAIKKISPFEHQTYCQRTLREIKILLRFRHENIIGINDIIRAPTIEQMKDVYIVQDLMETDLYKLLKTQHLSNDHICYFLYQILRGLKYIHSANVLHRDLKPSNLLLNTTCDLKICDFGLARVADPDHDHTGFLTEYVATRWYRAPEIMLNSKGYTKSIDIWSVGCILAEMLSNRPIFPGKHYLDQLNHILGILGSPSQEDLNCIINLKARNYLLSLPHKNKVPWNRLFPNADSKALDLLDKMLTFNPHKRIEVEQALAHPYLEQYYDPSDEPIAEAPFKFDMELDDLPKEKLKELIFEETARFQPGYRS
# Assay: ERK2 inhibition, spectrophotometric coupled-enzyme assay
# Format: biochemical
# Settings: activated ERK2 10 nM, 65 μM ATP, 30° C., pH 7.5; read-out: ERK2 Inhibitory Activity (Ki class)
row,Structure (SMILES),Ki [µM]
1,O=C(NC(CO)c1ccccc1)c1cc(-c2[nH]ncc2-c2cccc(Br)c2)c[nH]1 (stereo not shown) [II-45],< 1
2,O=C(NCc1ccc2c(c1)CCO2)c1cc(-c2[nH]ncc2-c2cccc(Br)c2)c[nH]1 [II-43],< 1
3,O=C(NCc1ccncc1)c1cc(-c2[nH]ncc2-c2cc(F)ccc2F)c[nH]1 [II-98],< 1
4,CCN(C)C(=O)c1cc(-c2[nH]ncc2-c2cccc(Cl)c2F)c[nH]1 [II-81],< 1
5,O=C(NC(CO)c1ccccc1)c1cc(-c2[nH]ncc2-c2cccc(Br)c2)c[nH]1 (stereo not shown) [II-72],< 1
6,O=C(NCc1ccncc1)c1cc(-c2n[nH]cc2-c2cc(Cl)cc(Cl)c2)c[nH]1 [II-48],< 1
7,O=C(NCc1cccnc1)c1cc(-c2[nH]ncc2-c2ccc(F)c(Cl)c2)c[nH]1 [II-101],< 1
8,O=C(NCc1cccnc1)c1cc(-c2[nH]ncc2-c2cccc(Cl)c2F)c[nH]1 [II-114],< 1
9,CCN(C)C(=O)c1cc(-c2[nH]ncc2-c2ccc(Cl)c(Cl)c2)c[nH]1 [II-64],< 1
10,CCN(C)C(=O)c1cc(-c2[nH]ncc2-c2cc(Cl)cc(Cl)c2)c[nH]1 [II-66],< 1
11,O=C(NCc1ccncc1)c1cc(-c2[nH]ncc2-c2cccc(F)c2F)c[nH]1 [II-141],1 to 5
12,O=C(NOCc1ccccc1)c1cc(-c2[nH]ncc2-c2cc(Cl)cc(Cl)c2)c[nH]1 [II-51],< 1
13,O=C(NOCc1ccccc1)c1cc(-c2[nH]ncc2-c2ccc(Cl)cc2)c[nH]1 [II-99],< 1

# Molecular target: KDR (Homo sapiens, UniProt P35968)
# Sequence (P35968 20-1356, species assumed): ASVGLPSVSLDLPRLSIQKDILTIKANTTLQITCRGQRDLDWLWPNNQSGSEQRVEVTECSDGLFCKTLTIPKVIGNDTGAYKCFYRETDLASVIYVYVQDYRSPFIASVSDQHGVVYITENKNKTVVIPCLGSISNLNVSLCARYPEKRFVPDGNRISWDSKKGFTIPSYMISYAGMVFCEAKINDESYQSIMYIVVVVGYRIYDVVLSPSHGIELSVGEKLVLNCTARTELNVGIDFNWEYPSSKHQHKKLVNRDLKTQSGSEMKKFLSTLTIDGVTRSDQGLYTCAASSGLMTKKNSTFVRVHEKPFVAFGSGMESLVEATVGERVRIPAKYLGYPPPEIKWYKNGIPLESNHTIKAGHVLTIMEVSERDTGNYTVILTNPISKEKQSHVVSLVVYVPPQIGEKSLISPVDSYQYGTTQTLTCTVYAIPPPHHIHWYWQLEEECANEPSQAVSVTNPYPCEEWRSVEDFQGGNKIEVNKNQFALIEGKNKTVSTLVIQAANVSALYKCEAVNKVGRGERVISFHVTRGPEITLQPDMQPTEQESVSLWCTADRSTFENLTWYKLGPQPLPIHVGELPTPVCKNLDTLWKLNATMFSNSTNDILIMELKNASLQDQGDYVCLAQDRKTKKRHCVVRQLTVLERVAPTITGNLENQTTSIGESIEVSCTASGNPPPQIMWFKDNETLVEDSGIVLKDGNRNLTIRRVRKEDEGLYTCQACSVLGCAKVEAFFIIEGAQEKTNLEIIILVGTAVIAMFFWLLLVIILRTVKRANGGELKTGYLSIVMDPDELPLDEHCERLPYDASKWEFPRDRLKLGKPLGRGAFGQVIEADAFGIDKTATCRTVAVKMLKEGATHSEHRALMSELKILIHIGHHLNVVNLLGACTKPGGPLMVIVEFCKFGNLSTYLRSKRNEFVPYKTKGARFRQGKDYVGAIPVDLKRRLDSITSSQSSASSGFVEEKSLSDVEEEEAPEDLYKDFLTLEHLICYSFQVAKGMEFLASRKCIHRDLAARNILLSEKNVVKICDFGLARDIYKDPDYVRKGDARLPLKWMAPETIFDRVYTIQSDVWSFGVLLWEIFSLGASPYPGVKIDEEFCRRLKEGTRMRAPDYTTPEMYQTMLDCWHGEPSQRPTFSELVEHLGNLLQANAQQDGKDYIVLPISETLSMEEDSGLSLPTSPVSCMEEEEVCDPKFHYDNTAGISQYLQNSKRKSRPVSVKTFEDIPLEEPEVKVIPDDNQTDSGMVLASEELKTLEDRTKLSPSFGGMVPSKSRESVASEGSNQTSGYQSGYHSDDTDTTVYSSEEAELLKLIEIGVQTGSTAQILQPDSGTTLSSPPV
# Assay: KDR inhibition, standard coupled enzyme assay
# Format: biochemical
# Settings: read-out: percent inhibition of KDR
# Protocol: Compounds were screened for their ability to inhibit KDR using a standard coupled enzyme assay (Fox et al., Protein Sci., (1998) 7, 2249). Assays were carried out in a mixture of 200 mM HEPES 7.5, 10 mM MgCl2, 25 mM NaCl , 1 mM DTT and 1.5% DMSO. Final substrate concentrations in the assay were 300 μM ATP (Sigma Chemicals) and 10 μM poly E4Y (Sigma). Assays were carried out at 37° C. and 30 nM KDR. Final concentrations of the components of the coupled enzyme system were 2.5 mM phosphoenolpyruvate, 200 μM NADH, 30 μg/ML pyruvate kinase and 10 μg/ml lactate dehydrogenase.
# An assay stock buffer solution was prepared containing all of the reagents listed above, with the exception of ATP and the test compound of interest. 177 μl of the stock solution was placed in a 96 well plate followed by addition of 3 μl of 2 mM DMSO stock containing the test compound (final compound concentration 30 μM). The plate was preincubated for about 10 minutes at 37° C. and the reaction initiated by addition of 20 μl of ATP (final concentration 300 μM). Rates of reaction were obtained using a Molecular Devices plate reader (Sunnyvale, Calif.) over a 5 minute read time at 37° C.
row,Structure (SMILES),inhibition at 2 µM [%]
1,O=C(NCc1ccc2c(c1)CCO2)c1cc(-c2[nH]ncc2-c2cccc(Br)c2)c[nH]1 [II-43],> 40
2,O=C(NCc1ccncc1)c1cc(-c2n[nH]cc2-c2cc(Cl)cc(Cl)c2)c[nH]1 [II-48],> 40

# Tested on: Colon cancer cells (HT-29 cell line)
# Assay: ERK inhibition cell proliferation assay (3H-thymidine uptake)
# Format: cell-based
# Settings: Homo sapiens, 3 days
# Protocol: Compounds were assayed for the inhibition of ERK2 by a cell proliferation assay. In this assay, a complete media was prepared by adding 10% fetal bovine serum and penicillin/streptomycin solution to RPMI 1640 medium (JRH Biosciences). Colon cancer cells (HT-29 cell line) were added to each of 84 wells of a 96 well plate at a seeding density of 10,000 cells/well/150 μL. The cells were allowed to attach to the plate by incubating at 37° C. for 2 hours. A solution of test compound was prepared in complete media by serial dilution to obtain the following concentrations: 20 μM, 6.7 μM, 2.2 μM, 0.74 μM, 0.25 μM, and 0.08 μM. The test compound solution (50 μL) was added to each of 72 cell-containing wells. To the 12 remaining cell-containing wells, only complete media […] was added to form a control group in order to measure maximal proliferation. To the remaining 12 empty wells, complete media was added to form a vehicle control group in order to measure background. The plates were incubated at 37° C. for 3 days. A stock solution of ^3H-thymidine (1 mCi/mL, New England Nuclear, Boston, Mass.) was diluted to 20 μCi/mL in RPMI medium then 20 μL of this solution was added to each well. The plates were further incubated at 37° C. for 8 hours then harvested and analyzed for ^3H-thymidine uptake using a liquid scintillation counter.
row,Structure (SMILES),IC50 [µM]
1,O=C(NC(CO)c1ccccc1)c1cc(-c2[nH]ncc2-c2cccc(Br)c2)c[nH]1 (stereo not shown) [II-45],< 10
2,O=C(NCc1ccc2c(c1)CCO2)c1cc(-c2[nH]ncc2-c2cccc(Br)c2)c[nH]1 [II-43],< 10
3,O=C(NCc1ccncc1)c1cc(-c2n[nH]cc2-c2cc(Cl)cc(Cl)c2)c[nH]1 [II-48],< 10
